Data published in ChEMBL document CHEMBL1128646, “The effect of Pyrrolo[3,4-c]carbazole derivatives on spinal cord ChAT activity” (Bioorg Med Chem Lett, 1995).
Calls of active or inactive are those of the source. The calls are words filed in the database; no cut-off is given here.

How the values were obtained:
[1] = biological target: T1, Choline O-acetyltransferase (Rattus norvegicus) (UniProt P32738); test: Compound was tested in vitro for choline acetyltransferase (ChAT) activity (maximal ChAT stimulation) in embryonic rat spinal cord cultures at a concentration of 10 uM; Inactive; format: tissue-based
T1 sequence (whole entry): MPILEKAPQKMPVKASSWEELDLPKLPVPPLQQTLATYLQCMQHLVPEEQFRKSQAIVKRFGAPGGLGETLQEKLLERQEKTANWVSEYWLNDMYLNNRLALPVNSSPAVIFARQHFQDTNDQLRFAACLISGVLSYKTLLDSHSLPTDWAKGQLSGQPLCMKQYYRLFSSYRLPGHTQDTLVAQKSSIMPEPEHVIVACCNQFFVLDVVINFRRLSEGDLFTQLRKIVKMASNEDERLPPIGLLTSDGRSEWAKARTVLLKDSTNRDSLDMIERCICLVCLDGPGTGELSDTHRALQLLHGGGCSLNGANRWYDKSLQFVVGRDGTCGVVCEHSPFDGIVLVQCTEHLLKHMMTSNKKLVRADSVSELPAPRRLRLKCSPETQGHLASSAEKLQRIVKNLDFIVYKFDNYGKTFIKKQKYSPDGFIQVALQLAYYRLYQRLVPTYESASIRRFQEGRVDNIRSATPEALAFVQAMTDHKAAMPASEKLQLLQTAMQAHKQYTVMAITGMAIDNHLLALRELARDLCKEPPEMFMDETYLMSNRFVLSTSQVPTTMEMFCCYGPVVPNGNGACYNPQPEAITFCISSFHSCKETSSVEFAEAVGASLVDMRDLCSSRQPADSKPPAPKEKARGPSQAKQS

[2] = biological target: T1, Choline O-acetyltransferase (Rattus norvegicus); test: Compound was tested in vitro for choline acetyltransferase (ChAT) activity (maximal ChAT stimulation) in embryonic rat spinal cord cultures at a concentration of 10 uM; inactive
[3] = biological target: T1, Choline O-acetyltransferase (Rattus norvegicus); test: Compound was tested in vitro for choline acetyltransferase (ChAT) activity (maximal ChAT stimulation) in embryonic rat spinal cord cultures at a concentration of 1 uM; format: tissue-based
[4] = biological target: T1, Choline O-acetyltransferase (Rattus norvegicus); test: Compound was tested in vitro for choline acetyltransferase (ChAT) activity (maximal ChAT stimulation) in embryonic rat spinal cord cultures at a concentration of 0.300 uM; format: tissue-based
[5] = biological target: T1, Choline O-acetyltransferase (Rattus norvegicus); test: Compound was tested in vitro for choline acetyltransferase (ChAT) activity (maximal ChAT stimulation) in embryonic rat spinal cord cultures at a concentration of 10 uM; format: tissue-based

In the case of CN1Cc2c(-c3ccccc3)cc3c(c2C1=O)c1ccccc1n3C, the Control [1] is reported as “inactive”.
For O=C1NCc2c(-c3ccccc3)cc3[nH]c4ccc(/C=C/c5ccccc5)cc4c3c21, the Control [2] was “inactive”.
With O=C1NCc2c1c1c3ccccc3[nH]c1c1[nH]c3ccccc3c21 the Control [3] was 162%.
COC(=O)[C@]1(O)C[C@@H]2O[C@@]1(C)n1c3ccccc3c3c4c(c5c6ccccc6n2c5c31)C(=O)NC4 showed a Control [4] of 186%.
Compound O=C1NCc2c(-c3ccccc3)cc3[nH]c4ccc(Br)cc4c3c21 has a Control [3] of 146%.
In the case of O=C1NCc2c(-c3ccccc3)cc3[nH]c4ccccc4c3c21, the Control [5] is reported as 167%.
CC(C)(C)OC(=O)/C=C/c1ccc2[nH]c3cc(-c4ccccc4)c4c(c3c2c1)C(=O)NC4 was tested, and the Control [2] was “inactive”.
Cn1c2ccccc2c2c3c(c(-c4ccccc4)cc21)CNC3=O gave a Control [5] of 159%.
In the case of O=C1NCc2c1c(-c1ccccc1)cc1[nH]c3ccccc3c21, the Control [2] is reported as “inactive”.
